{"source": "ChEMBL document CHEMBL1136694", "about": "“Aryl tetrahydropyridine inhibitors of farnesyltransferase: bioavailable analogues with improved cellular potency” (Bioorg Med Chem Lett, 2003)", "key": {"[1]": {"molecular_target": "Protein farnesyltransferase (Mus musculus, UniProt Q61239+Q8K2I1)", "assay": "Inhibition of Ras farnesylation in Human Ha-Ras oncogene-transformed BALB/c 3T3 cells (EJ3 cells)", "assay_type": "functional, cell-based"}, "[2]": {"molecular_target": "Protein farnesyltransferase (Homo sapiens, UniProt P49354+P49356)", "assay": "In vitro inhibition of farnesyltransferase", "assay_type": "protein-complex assay"}, "[3]": {"molecular_target": "Geranylgeranyl transferase type I (Homo sapiens, UniProt P49354+P53609)", "assay": "In vitro inhibition of geranylgeranyltransferase-1", "assay_type": "protein-complex assay"}, "[4]": {"assay": "Compound was tested for orally bioavailable in dogs with a half life of 1.2h", "assay_type": "ADME, organism-based, Canis lupus familiaris", "settings": "dog, in vivo, po"}, "[5]": {"assay": "Compound was tested for orally bioavailable in dogs with a half life of 0.7 hr", "assay_type": "ADME, organism-based, Canis lupus familiaris", "settings": "dog, in vivo, po"}}, "data": [{"smiles": "N#CC1=C(c2cccc3ccccc23)CN(C(=O)Cc2cncn2Cc2ccc(C#N)c(Cl)c2)CC1", "values": [{"measurement": "EC50", "setting": "[1]", "result": "> 100", "unit": "nM"}, {"measurement": "IC50", "setting": "[2]", "result": 15, "unit": "nM"}, {"measurement": "IC50", "setting": "[3]", "result": 1300, "unit": "nM"}]}, {"smiles": "Cn1cncc1C(NN1CCC(C#N)=C(c2cccc3ccccc23)C1)c1ccc(C#N)cc1", "note": "(stereo not drawn)", "values": [{"measurement": "bioavailability", "setting": "[4]", "result": 27, "unit": "%"}, {"measurement": "EC50", "setting": "[1]", "result": 0.5, "unit": "nM"}, {"measurement": "IC50", "setting": "[2]", "result": 0.5, "unit": "nM"}, {"measurement": "IC50", "setting": "[3]", "result": 600, "unit": "nM"}]}, {"smiles": "Cn1cncc1C(O)(CN1CCC(C#N)=C(c2cccc3ccccc23)C1)c1ccc(C#N)cc1", "note": "(stereo not drawn)", "values": [{"measurement": "EC50", "setting": "[1]", "result": 4, "unit": "nM"}, {"measurement": "IC50", "setting": "[2]", "result": 0.48, "unit": "nM"}, {"measurement": "IC50", "setting": "[3]", "result": 540, "unit": "nM"}]}, {"smiles": "COC1=C(C#N)CCN(C(=O)Cc2cncn2Cc2ccc(C#N)c(-c3cccc4ccccc34)c2)C1", "values": [{"measurement": "EC50", "setting": "[1]", "result": "> 100", "unit": "nM"}, {"measurement": "IC50", "setting": "[2]", "result": 1.4, "unit": "nM"}, {"measurement": "IC50", "setting": "[3]", "result": 2700, "unit": "nM"}]}, {"smiles": "Cn1cncc1CN(Cc1ccc(Cl)c(Cl)c1)C(=O)N1CCC(C#N)=C(c2cccc3ccccc23)C1", "values": [{"measurement": "IC50", "setting": "[2]", "result": 20, "unit": "nM"}, {"measurement": "IC50", "setting": "[3]", "result": 1500, "unit": "nM"}]}, {"smiles": "Cn1cncc1CN(Cc1cccc(C#N)c1)C(=O)N1CCC(C#N)=C(c2cccc3ccccc23)C1", "values": [{"measurement": "IC50", "setting": "[2]", "result": 59, "unit": "nM"}, {"measurement": "IC50", "setting": "[3]", "result": 10000, "unit": "nM"}]}, {"smiles": "Cn1cncc1CN(Cc1ccc(C#N)c(Br)c1)C(=O)N1CCC(C#N)=C(c2cccc3ccccc23)C1", "values": [{"measurement": "EC50", "setting": "[1]", "result": "> 1", "unit": "nM"}, {"measurement": "IC50", "setting": "[2]", "result": 3.1, "unit": "nM"}, {"measurement": "IC50", "setting": "[3]", "result": 1400, "unit": "nM"}]}, {"smiles": "N#CC1=C(c2cccc3ccccc23)CN(C(=O)Cc2cncn2Cc2ccc(Cl)cc2)CC1", "values": [{"measurement": "EC50", "setting": "[1]", "result": "> 100", "unit": "nM"}, {"measurement": "IC50", "setting": "[2]", "result": 35, "unit": "nM"}, {"measurement": "IC50", "setting": "[3]", "result": "> 10000", "unit": "nM"}]}, {"smiles": "N#CC1=C(c2cccc3ccccc23)CN(C(=O)CCc2cncn2Cc2ccc(C#N)cc2)CC1", "values": [{"measurement": "EC50", "setting": "[1]", "result": 28, "unit": "nM"}, {"measurement": "IC50", "setting": "[2]", "result": 1.4, "unit": "nM"}, {"measurement": "IC50", "setting": "[3]", "result": 1300, "unit": "nM"}]}, {"smiles": "CN(Cc1ccc(C#N)cc1)[C@H](Cc1cncn1C)C(=O)N1CCC(C#N)=C(c2cccc3ccccc23)C1", "values": [{"measurement": "EC50", "setting": "[1]", "result": "> 100", "unit": "nM"}, {"measurement": "IC50", "setting": "[2]", "result": 0.92, "unit": "nM"}, {"measurement": "IC50", "setting": "[3]", "result": 1600, "unit": "nM"}]}, {"smiles": "N#CC1=C(c2cccc3ccccc23)CN(C(=O)Cc2cncn2Cc2ccc(C#N)cc2)CC1", "values": [{"measurement": "EC50", "setting": "[1]", "result": 3.9, "unit": "nM"}, {"measurement": "IC50", "setting": "[3]", "result": 4500, "unit": "nM"}, {"measurement": "bioavailability", "setting": "[5]", "result": 10, "unit": "%"}]}, {"smiles": "Cn1cncc1C(c1ccc(C#N)cc1)N1CCC(C#N)=C(c2cccc3ccccc23)C1", "note": "(stereo not drawn)", "values": [{"measurement": "EC50", "setting": "[1]", "result": 31, "unit": "nM"}, {"measurement": "IC50", "setting": "[2]", "result": 0.5, "unit": "nM"}, {"measurement": "IC50", "setting": "[3]", "result": 161000, "unit": "nM"}]}, {"smiles": "Cn1cncc1CN(Cc1ccc(C#N)cc1)C(=O)N1CCC(C#N)=C(c2cccc3ccccc23)C1", "values": [{"measurement": "EC50", "setting": "[1]", "result": 97, "unit": "nM"}, {"measurement": "IC50", "setting": "[2]", "result": 3.5, "unit": "nM"}, {"measurement": "IC50", "setting": "[3]", "result": 4000, "unit": "nM"}]}]}
